# In patent US20250057959A1, “PHOSPHANE GOLD(I)-N-HETEROCYCLIC CARBENE COMPLEXES FOR TREATING CANCER” (KING FAHD UNIVERSITY OF PETROLEUM AND MINERALS, priority 2023, published 2025):
# Key:
# [1] = test system: adipose-derived stem cells (ADSCs); experiment: Cell viability in normal adipose-derived stem cells; format: cell-based; settings: 72 hours treatment, normal human cells
# Text: Human epithelial ovarian cancer A2780 cell line and its cisplatin-resistant clone A2780cis were obtained from Sigma-Aldrich (Milano, Italy). SKOV3 (HTB-77) cells were from the American Type Culture Collection (ATCC). The two cell lines were selected to reflect the two different stages of OvCa and different sensitivity to cisplatin. A2780 cell lines were derived from the ovarian tumor tissue of an untreated patient, while SKOV3 was from the ascitic fluids (after metastasis). Cells were authenticated in the laboratory using PowerPlex 16 HS system (Promega) and GeneMapper ID version 3.2.1 to identify DNA short tandem repeats. […]
# 4.0×10^3/mL A2780, A2780cis, and SKOV3 cells were seeded in 96-well microplates in 100 μL of culture medium. […] Cell viability was evaluated using 3-(4,5-dimethylthiazol-2-yl)-2,5-diphenyltetrazolium bromide (MTT) assay (Sigma-Aldrich) after 72 hours of treatment. Half maximal inhibitory concentrations (IC50) were calculated using the CalcuSyn software version 2 (Biosoft, Ferguson, MO, USA). Fold resistance was calculated as the ratio of the IC50 of the A2780cis to that of the parental cell line A2780.
# OvCa cells = experiment: Western blot of cell cycle regulatory proteins; format: cell-based, human; settings: 24 hours
# Procedure: (§1) Whole-cell lysates were prepared using cold RIPA buffer [150 mM NaCl, 50 mM Tris-HCl (pH 8), 0.1% SDS, 1% Igepal, and 0.5% desoxycholate sodium] containing a protease inhibitor cocktail (Roche Diagnostics S.p.a., Milan, Italy), phosphatase inhibitors 1 mM Na3VO4 and 1 mM NaF (Sigma-Aldrich). Protein concentrations were determined using the BioRad protein assay (Bio-Rad Laboratories, Inc., CA, USA). Equal amounts of proteins were mixed with Laemmli buffer, separated in 4-20% SDS-PAGE (Criterion Precast Gel, BioRad), and blotted onto a nitrocellulose membrane (Amersham, GE Healthcare). Membrane strips were blocked with EveryBilot blocking buffer (Bio-Rad) and incubated at 4° C. overnight with primary antibodies probed with the appropriate antibodies (Table 2) and developed using Immobilon Western chemioluminescent HRP substrate. Images were acquired using a ChemiDoc XRS system (Bio-Rad).
# [2] = test system: thioredoxin reductase (TrxR); settings: OvCa cells treated 24 hours
# Procedure: To evaluate both the thioredoxin reductase (TrxR) and proteasome activity, cells were treated with complex 6 for 24 hours and then lysed in 50 mM Tris-HCl, pH 7.6, 0.1% Triton X-100, 0.9% NaCl. TrxR (EC 1.8.1.9) was assayed using thioredoxin reductase assay kit (Sigma-Aldrich). Enzyme activity was determined by reading the absorbance at 412 nm using a spectrophotometer (Biomate 3 Thermo Spectronic, Thermo Electonic Corporation, Monza, Italy).
# The enzymatic activity was normalized to the protein concentration and determined using the Bio-Rad protein assay (protein assay dye reagent concentrate, Bio-Rad Laboratories, Segrate, Italy).
# A2780 and A2780cis cells [3] = experiment: Apoptosis by flow cytometry (annexin-V/7AAD, caspase-3,7, BAX, Bcl-2); format: cell-based, human
# Procedure: Results were detected by flow cytometry on a BD FACSCanto II flow cytometer. Data were analyzed using BD FACSDiva version 8.0.1 software (BD Biosciences) unless otherwise indicated. To evaluate apoptosis, tumor cells were treated for 48 hours and then stained for 15 minutes with FITC annexin-V (Thermo Fisher Scientific) and 7AAD (BD Pharmingen). […] For B-cell lymphoma/leukemia-2 (Bcl-2) and Bcl-2 associated x protein (Bax) evaluation, cells were fixed and permeabilized using FIX & PERM cell fixation and cell permeabilization kit (Life Technologies). […] The distribution of cells in different cell cycle phases was quantified using ModFit LT 4.0 software (Verity Software House, Topsham, ME, USA).
# [4] = test system: tumor xenografts derived from SKOV3 cells; experiment: SKOV3 xenograft tumor growth in athymic nude mice; format: in vivo; settings: two injections/week
# Procedure: (§2) Animal experimentation was reviewed and approved by Centro di Riferimento Oncologico di Aviano (CRO) Institutional Organism for Animal Wellbeing (OPBA) and approved by the Italian Ministry of Health (No. 671/2015/PR). All animal experiments were conducted in adherence to the international and institutional committees' ethical guidelines. Ten 4-week-old female athymic nude NU(NCr)-Foxn1^nu mice were purchased from Charles Rivers (Lecco, Italy). SKOV3 (10×10^6 cells/animal) were suspended in BD Matrigel basement membrane matrix (BD Biosciences) (diluted 1:3 in PBS) and inoculated into the animals' right flank. When tumors were palpable, animals were divided into two groups of five mice each, and treated with intratumoral injection of complex 6 (2 mg/kg) or vehicle (10% DMSO, 20% Cremophor Sigma-Aldrich, 70% PBS) two times a week. Body weight and tumors were examined regularly. Tumor size was measured using a digital caliper, and volumes were calculated according to the formula (width^2×length×3.14)/6.
# A2780 and A2780cis cells [5] = experiment: DNA double-strand breaks, γ-H2AX western blot; format: cell-based, human
# Procedure: as §1
# [6] = Body weight and physical inspection of xenografted mice; format: in vivo; settings: 2 mg/kg intratumoral, two injections/week
# Procedure: as §2
structure (smiles),measurement,setting,value
"CC(C)c1cccc(C(C)C)c1-n1ccn(-c2c(C(C)C)cccc2C(C)C)[c]1=[Au+][PH](C1CCCCC1)(C1CCCCC1)C1CCCCC1.F[P-](F)(F)(F)(F)F [Complex 6, [Au(IPr)(C18H33P)] PF6]",IC50,[1],2500 nM
same,"Expression of G1/S phase proteins (CDKs, cyclins, E2F1, pRB)",OvCa cells,"down-regulated the expression of CDk2, CDk4, CDk6, CycE, CycD1, CycD3"
same,Expression of cyclin D regulators,OvCa cells,"increased the expression of Foxo3A and pGSK-30 and decreased that of Cdc25a, PI3KI, pERK1/2, and bRAF"
same,TrxR enzymatic activity,[2],did not modify its enzymatic activity
same,Apoptosis (annexin-V / 7AAD positive cells),"A2780 and A2780cis cells [3]; 48 hours, complex 6 and auranofin at IC50 and IC75, cisplatin 0.15 μM and 0.50 μM",increased in a dose-dependent manner
same,"Caspase-3,7 activation","A2780 and A2780cis cells [3]; FLICA, flow cytometry","activated caspase-3,7"
same,BAX expression,A2780 and A2780cis cells [3]; flow cytometry,induced the proapoptotic BAX
same,BCL-2 expression,A2780 and A2780cis cells [3]; flow cytometry,down-regulated the antiapoptotic BCL-2
same,Reduction of tumor volume with respect to vehicle-treated mice,[4]; 2 mg/kg intratumoral,more than 80%
same,Tumor mass weight,[4]; 2 mg/kg intratumoral,reduced
same,Mean tumor volume,"[4]; day 35, 2 mg/kg intratumoral, control 869.5±61.9",155.8±84.5 mm^3
same,DNA double-strand breaks (γH2AX),A2780 and A2780cis cells [5],induced DNA-DSBs
same,Physical inspection and body weight,[6],normal to physical inspection with a comparable weight with respect to untreated mice
